ChEMBL document CHEMBL1932974, “Optimization of a novel kinase inhibitor scaffold for the dual inhibition of JAK2 and FAK kinases” (Bioorg Med Chem Lett, 2012)

Tests used:
Focal adhesion kinase 1 [1] = molecular target: T1, Focal adhesion kinase 1 (Homo sapiens, UniProt Q05397); assay: Inhibition of human recombinant FAK expressed in baculovirus expression system after 30 mins by time resolved fluorescence assay
[2] = molecular target: T2, Tyrosine-protein kinase JAK2 (Homo sapiens, UniProt O60674); assay: Inhibition of human recombinant JAK2 expressed in baculovirus expression system after 20 mins by time resolved fluorescence assay
Focal adhesion kinase 1 [3] = molecular target: T1, Focal adhesion kinase 1; assay: Inhibition of FAK in human 293GT cells after 1 hr by luminescence-based spectrophotometry; format: cell-based
[4] = molecular target: T2, Tyrosine-protein kinase JAK2; assay: Inhibition of JAK2 in GM-CSF-stimulated human TF1 cells preincubated for 1 hr prior to challenge
[5] = Metabolic stability in human liver microsomes; format: ADME, Microsome; details: read-out: Stability
[6] = Metabolic stability in dog liver microsomes; format: ADME, Canis lupus familiaris, Microsome; details: read-out: Stability
[7] = Metabolic stability in rat liver microsomes; format: ADME, Microsome; details: read-out: Stability
[8] = Metabolic stability in mouse liver microsomes; format: ADME, Microsome; details: read-out: Stability
[9] = Clearance in Sprague-Dawley rat at 1 mg/kg, iv; format: ADME, organism-based; parameters: dose 1 mg/kg, route intravenous; details: in vivo
[10] = Half life in Sprague-Dawley rat at 1 mg/kg, iv; format: ADME, organism-based; parameters: dose 1 mg/kg, route intravenous; details: in vivo
[11] = Cmax in Sprague-Dawley rat at 5 mg/kg, po; format: ADME, organism-based; parameters: dose 5 mg/kg, route oral; details: in vivo
[12] = Oral bioavailability in Sprague-Dawley rat at 5 mg/kg; format: ADME, organism-based; details: in vivo
[13] = Plasma protein binding in mouse; format: ADME, cell-free; details: read-out: PPB (converted)
Insulin receptor = Insulin receptor (Homo sapiens, UniProt P06213); assay: Inhibition of insulin receptor
[14] = AUC (0 to t) in Sprague-Dawley rat at 1 mg/kg, iv; format: ADME, organism-based; parameters: dose 1 mg/kg, route intravenous; details: plasma
Mus musculus [15] = assay: Inhibition of JAK2-mediated STAT3 phosphorylation in human CWR22 cells xenografted mouse at 55 mg/kg, po administered as a single dose measured up to 12 hrs; format: functional; details: CWR22, 12 h
[16] = Volume of distribution in Sprague-Dawley rat at 1 mg/kg, iv; format: ADME, organism-based; parameters: dose 1 mg/kg, route intravenous; details: in vivo
[17] = AUC (0 to infinity) in Sprague-Dawley rat at 5 mg/kg, po; format: ADME, organism-based; parameters: time infinity, dose 5 mg/kg, route oral; details: plasma
[18] = Tmax in Sprague-Dawley rat at 5 mg/kg, po; format: ADME, organism-based; parameters: dose 5 mg/kg, route oral; details: in vivo
Mus musculus [19] = assay: Inhibition of FAK phosphorylation in human CWR22 cells xenografted in mouse at 55 mg/kg, po administered as a single dose measured at 2 hrs; format: functional; details: CWR22, 2 h
[20] = molecular target: T3, Tyrosine-protein kinase JAK3 (Homo sapiens, UniProt P52333); assay: Inhibition of JAK3
T3 sequence (P52333 whole entry): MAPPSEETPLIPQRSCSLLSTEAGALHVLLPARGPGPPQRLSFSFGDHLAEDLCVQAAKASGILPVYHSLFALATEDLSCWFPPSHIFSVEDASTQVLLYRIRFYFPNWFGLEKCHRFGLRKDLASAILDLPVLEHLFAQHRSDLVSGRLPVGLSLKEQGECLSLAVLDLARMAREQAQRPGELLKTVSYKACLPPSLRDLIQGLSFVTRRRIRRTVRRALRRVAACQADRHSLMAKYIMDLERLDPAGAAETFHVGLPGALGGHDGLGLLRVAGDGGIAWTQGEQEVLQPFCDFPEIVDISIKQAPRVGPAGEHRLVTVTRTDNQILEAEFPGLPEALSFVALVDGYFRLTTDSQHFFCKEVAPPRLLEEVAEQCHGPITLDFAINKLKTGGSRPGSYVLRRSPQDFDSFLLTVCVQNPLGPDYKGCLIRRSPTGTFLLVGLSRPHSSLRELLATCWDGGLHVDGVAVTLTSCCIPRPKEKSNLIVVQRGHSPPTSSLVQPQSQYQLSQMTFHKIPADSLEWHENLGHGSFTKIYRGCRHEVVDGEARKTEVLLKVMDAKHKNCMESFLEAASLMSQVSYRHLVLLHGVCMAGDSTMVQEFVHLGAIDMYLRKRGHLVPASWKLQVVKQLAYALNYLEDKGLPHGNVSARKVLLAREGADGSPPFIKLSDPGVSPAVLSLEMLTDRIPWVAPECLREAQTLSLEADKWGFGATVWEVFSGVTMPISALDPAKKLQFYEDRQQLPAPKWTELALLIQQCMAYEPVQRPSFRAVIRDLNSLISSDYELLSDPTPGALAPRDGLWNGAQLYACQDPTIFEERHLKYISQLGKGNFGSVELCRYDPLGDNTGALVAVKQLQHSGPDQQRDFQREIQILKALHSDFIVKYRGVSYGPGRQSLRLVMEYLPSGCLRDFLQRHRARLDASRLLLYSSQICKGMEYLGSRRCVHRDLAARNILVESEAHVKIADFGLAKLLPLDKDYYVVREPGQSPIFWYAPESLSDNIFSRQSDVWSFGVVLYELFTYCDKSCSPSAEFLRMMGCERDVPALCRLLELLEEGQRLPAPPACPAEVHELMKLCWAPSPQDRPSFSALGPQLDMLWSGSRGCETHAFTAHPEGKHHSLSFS

T1 sequence (Q05397 whole entry): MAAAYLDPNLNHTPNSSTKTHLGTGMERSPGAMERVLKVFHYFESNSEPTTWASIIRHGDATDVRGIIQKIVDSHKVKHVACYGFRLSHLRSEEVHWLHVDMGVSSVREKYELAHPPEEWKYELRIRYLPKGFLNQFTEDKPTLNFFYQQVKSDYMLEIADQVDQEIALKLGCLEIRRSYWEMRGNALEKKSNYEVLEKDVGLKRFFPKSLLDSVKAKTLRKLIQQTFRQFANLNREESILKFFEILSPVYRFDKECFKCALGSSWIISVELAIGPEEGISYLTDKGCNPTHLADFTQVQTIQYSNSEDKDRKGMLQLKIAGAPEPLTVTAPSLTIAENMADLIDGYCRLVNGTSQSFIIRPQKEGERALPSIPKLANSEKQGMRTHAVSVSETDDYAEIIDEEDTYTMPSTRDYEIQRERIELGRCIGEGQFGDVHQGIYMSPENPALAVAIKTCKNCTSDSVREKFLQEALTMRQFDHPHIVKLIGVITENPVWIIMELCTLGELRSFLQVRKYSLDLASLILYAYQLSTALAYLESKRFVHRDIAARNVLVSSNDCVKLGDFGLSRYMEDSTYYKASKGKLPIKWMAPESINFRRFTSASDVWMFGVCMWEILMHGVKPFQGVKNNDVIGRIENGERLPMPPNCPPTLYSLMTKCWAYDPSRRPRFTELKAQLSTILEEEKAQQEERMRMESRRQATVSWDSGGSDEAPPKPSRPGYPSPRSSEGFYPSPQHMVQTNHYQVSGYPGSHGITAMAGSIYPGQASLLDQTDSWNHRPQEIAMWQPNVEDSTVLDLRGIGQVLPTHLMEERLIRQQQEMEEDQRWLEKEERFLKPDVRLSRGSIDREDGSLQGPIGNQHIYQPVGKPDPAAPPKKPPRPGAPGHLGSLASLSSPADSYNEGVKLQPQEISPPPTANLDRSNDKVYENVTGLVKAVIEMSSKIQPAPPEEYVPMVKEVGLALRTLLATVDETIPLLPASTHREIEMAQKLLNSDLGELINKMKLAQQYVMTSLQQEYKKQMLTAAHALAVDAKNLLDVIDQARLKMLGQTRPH
T2 sequence (O60674 whole entry): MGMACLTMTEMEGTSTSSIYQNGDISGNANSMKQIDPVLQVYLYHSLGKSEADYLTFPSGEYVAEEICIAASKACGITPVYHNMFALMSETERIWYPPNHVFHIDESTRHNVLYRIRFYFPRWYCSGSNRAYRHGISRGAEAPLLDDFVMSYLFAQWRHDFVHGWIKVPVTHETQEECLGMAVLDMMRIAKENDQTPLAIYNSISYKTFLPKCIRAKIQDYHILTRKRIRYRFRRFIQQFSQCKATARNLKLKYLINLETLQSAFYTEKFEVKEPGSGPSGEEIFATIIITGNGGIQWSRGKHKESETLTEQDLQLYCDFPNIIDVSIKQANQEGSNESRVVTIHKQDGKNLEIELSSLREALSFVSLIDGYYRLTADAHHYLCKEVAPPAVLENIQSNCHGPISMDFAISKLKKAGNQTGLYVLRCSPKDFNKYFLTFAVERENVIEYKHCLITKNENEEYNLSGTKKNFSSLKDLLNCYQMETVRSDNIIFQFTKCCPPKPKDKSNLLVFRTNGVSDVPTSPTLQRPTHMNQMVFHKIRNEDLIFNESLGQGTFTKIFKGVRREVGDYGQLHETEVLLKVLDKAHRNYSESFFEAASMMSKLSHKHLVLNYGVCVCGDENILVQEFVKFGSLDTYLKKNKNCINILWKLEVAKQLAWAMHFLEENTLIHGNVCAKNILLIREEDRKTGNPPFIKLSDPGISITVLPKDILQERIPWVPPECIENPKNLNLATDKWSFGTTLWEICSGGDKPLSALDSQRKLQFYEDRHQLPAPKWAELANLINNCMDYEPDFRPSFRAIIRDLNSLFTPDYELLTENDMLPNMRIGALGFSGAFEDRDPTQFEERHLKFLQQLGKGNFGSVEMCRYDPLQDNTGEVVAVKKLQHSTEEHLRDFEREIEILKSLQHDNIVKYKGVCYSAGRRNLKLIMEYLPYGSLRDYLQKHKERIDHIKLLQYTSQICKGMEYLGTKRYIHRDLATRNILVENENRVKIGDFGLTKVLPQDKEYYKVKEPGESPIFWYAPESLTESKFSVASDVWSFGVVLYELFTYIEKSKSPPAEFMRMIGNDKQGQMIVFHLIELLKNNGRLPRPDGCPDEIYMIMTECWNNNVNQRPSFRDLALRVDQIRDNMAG
Sequence of Insulin receptor (P06213 28-758 limits assumed): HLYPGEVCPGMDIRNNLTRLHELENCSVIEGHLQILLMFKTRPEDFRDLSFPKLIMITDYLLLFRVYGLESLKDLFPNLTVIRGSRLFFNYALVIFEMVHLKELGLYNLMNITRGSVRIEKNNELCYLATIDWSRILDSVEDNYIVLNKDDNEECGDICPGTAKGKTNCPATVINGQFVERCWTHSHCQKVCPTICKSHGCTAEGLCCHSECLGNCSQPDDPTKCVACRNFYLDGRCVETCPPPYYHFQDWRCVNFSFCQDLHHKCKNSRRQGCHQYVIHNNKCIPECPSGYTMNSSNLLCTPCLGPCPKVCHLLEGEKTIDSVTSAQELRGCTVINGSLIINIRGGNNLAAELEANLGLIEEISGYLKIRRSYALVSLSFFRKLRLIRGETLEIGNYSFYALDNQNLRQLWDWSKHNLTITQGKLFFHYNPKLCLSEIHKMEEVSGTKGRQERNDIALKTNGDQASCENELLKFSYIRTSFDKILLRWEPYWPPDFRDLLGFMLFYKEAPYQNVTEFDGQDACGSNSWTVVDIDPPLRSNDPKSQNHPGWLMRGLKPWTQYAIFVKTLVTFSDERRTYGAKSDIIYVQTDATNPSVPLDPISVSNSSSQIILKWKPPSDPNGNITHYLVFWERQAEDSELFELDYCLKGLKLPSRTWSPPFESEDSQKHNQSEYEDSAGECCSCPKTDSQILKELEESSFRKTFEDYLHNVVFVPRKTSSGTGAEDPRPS
Sequence of Insulin receptor (P06213 763-1382 limits assumed): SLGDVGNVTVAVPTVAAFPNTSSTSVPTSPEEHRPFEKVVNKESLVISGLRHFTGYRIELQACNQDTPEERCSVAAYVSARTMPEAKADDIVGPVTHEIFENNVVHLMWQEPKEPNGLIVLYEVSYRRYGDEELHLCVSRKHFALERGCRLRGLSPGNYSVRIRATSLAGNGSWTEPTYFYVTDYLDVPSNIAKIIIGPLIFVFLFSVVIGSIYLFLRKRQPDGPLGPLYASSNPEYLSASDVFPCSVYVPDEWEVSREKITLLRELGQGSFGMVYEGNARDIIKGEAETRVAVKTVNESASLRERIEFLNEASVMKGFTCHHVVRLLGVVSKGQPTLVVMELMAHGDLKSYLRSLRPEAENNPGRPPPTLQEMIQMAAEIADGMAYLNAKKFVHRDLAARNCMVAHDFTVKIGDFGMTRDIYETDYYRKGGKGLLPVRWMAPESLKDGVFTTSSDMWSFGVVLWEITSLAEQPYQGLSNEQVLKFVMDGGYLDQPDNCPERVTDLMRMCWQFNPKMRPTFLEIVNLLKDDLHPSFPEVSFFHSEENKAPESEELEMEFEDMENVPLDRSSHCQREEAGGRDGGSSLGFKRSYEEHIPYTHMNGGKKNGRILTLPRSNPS

For COc1cc(Nc2ncc3ccc(-c4ccccc4)n3n2)cc(OC)c1OC, the IC50 (Focal adhesion kinase 1 [1]) was 17 nM and the IC50 [2] was 0.2 nM.

COc1cc(C2CCN(CC(N)=O)CC2)ccc1Nc1ncc2ccc(-c3ccccc3OC)n2n1 gave an IC50 (Focal adhesion kinase 1 [1]) of 21 nM and an IC50 [2] of 250 nM.

COc1ccccc1-c1ccc2cnc(Nc3ccc(C4CCN(CC(N)=O)CC4)cc3)nn12 gave an IC50 (Focal adhesion kinase 1 [3]) of 690 nM, an IC50 (Focal adhesion kinase 1 [1]) of 55 nM and an IC50 [4] of 41 nM. For the same compound, the IC50 [2] was 0.6 nM.

With CN(c1ccccc1-c1ccc2cnc(Nc3ccc(C4CCN(CC(N)=O)CC4)cc3)nn12)S(C)(=O)=O the IC50 (Focal adhesion kinase 1 [3]) was 610 nM, the half-life [5] was less than 5 min and the half-life [6] was 11 min. For the same compound, the half-life [7] was 6 min, the half-life [8] was 15 min and the IC50 (Focal adhesion kinase 1 [1]) was 14 nM. For the same compound, the IC50 [4] was 15 nM and the IC50 [2] was 2 nM.

Compound CC(C)(C)NS(=O)(=O)c1cccc(-c2ccc3cnc(Nc4ccc(C5CCN(CC(N)=O)CC5)cc4)nn23)c1 has an IC50 (Focal adhesion kinase 1 [3]) of 1340 nM, an IC50 (Focal adhesion kinase 1 [1]) of 5.7 nM and an IC50 [4] of 90 nM. For the same compound, the IC50 [2] was 0.64 nM.

In the case of COc1ccc(-c2ccc3cnc(Nc4ccc(C5CCN(CC(N)=O)CC5)cc4)nn23)cn1, the IC50 (Focal adhesion kinase 1 [3]) is reported as 1190 nM, the IC50 (Focal adhesion kinase 1 [1]) is reported as 39 nM and the IC50 [4] is reported as 62 nM. The IC50 [2] was 0.77 nM.

Compound CS(=O)(=O)Nc1cccc(-c2ccc3cnc(Nc4ccc(C5CCN(CC(N)=O)CC5)cc4)nn23)c1 has an IC50 (Focal adhesion kinase 1 [3]) of 660 nM, an IC50 (Focal adhesion kinase 1 [1]) of 21 nM and an IC50 [4] of 60 nM. For the same compound, the IC50 [2] was 0.22 nM.

For CN(c1cccc(-c2ccc3cnc(Nc4ccc(C5CCN(CC(N)=O)CC5)cc4)nn23)c1)S(C)(=O)=O, the IC50 (Focal adhesion kinase 1 [3]) was greater than 10000 nM, the IC50 (Focal adhesion kinase 1 [1]) was 48 nM and the IC50 [4] was 45 nM. For the same compound, the IC50 [2] was 0.09 nM.

Compound NC(=O)CN1CCC(c2ccc(Nc3ncc4ccc(-c5cccc(CO)c5)n4n3)cc2)CC1 has an IC50 (Focal adhesion kinase 1 [3]) of 1390 nM, an IC50 (Focal adhesion kinase 1 [1]) of 33 nM and an IC50 [4] of 27 nM. The IC50 [2] was 0.27 nM.

Compound CS(=O)(=O)c1ccc(-c2ccc3cnc(Nc4ccc(C5CCN(CC(N)=O)CC5)cc4)nn23)cc1 has an IC50 (Focal adhesion kinase 1 [3]) greater than 10000 nM, an IC50 (Focal adhesion kinase 1 [1]) of 114 nM and an IC50 [4] of 29 nM. The IC50 [2] was 0.22 nM.

Compound CS(=O)(=O)c1cccc(-c2ccc3cnc(Nc4ccc(C5CCN(CC(N)=O)CC5)cc4)nn23)c1 has an IC50 (Focal adhesion kinase 1 [3]) of 1010 nM, an IC50 (Focal adhesion kinase 1 [1]) of 25 nM and an IC50 [4] of 58 nM. For the same compound, the IC50 [2] was 0.52 nM.

CN(c1ncccc1-c1ccc2cnc(Nc3ccc(C4CCN(CC(N)=O)CC4)cc3)nn12)S(C)(=O)=O gave an IC50 (Focal adhesion kinase 1 [3]) of 750 nM, an IC50 (Focal adhesion kinase 1 [1]) of 14 nM and an IC50 [4] of 38 nM. It also gave an IC50 [2] of 2.1 nM.

Work on COc1cccnc1-c1ccc2cnc(Nc3ccc(C4CCN(CC(N)=O)CC4)cc3)nn12 yielded an IC50 (Focal adhesion kinase 1 [3]) greater than 10000 nM, an IC50 (Focal adhesion kinase 1 [1]) of 2040 nM and an IC50 [4] of 1140 nM. The IC50 [2] was 16 nM.

With NC(=O)CN1CCC(c2ccc(Nc3ncc4ccc(-c5ncccn5)n4n3)cc2)CC1 the IC50 (Focal adhesion kinase 1 [1]) was greater than 10000 nM and the IC50 [2] was 85 nM.

Compound NC(=O)CN1CCC(c2ccc(Nc3ncc4ccc(-c5cnccn5)n4n3)cc2)CC1 has an IC50 (Focal adhesion kinase 1 [1]) of 551 nM, an IC50 [4] of 282 nM and an IC50 [2] of 8.9 nM.

Work on NC(=O)CN1CCC(c2ccc(Nc3ncc4ccc(-c5cccc6c5OC(F)(F)O6)n4n3)cc2)CC1 yielded an IC50 (Focal adhesion kinase 1 [1]) of 122 nM, an IC50 [4] greater than 1000 nM and an IC50 [2] of 13 nM.

In the case of CN(C)Cc1ccc(-c2ccc3cnc(Nc4ccc(C5CCN(CC(N)=O)CC5)cc4)nn23)cc1, the IC50 (Focal adhesion kinase 1 [1]) is reported as greater than 1000 nM and the IC50 [2] is reported as 2900 nM.

CS(=O)(=O)N1Cc2cccc(-c3ccc4cnc(Nc5ccc(C6CCN(CC(N)=O)CC6)cc5)nn34)c2C1 gave an IC50 (Focal adhesion kinase 1 [1]) of 205 nM.

In the case of NC(=O)CN1CCC(c2ccc(Nc3ncc4ccc(-c5cccc6cccnc56)n4n3)cc2)CC1, the IC50 (Focal adhesion kinase 1 [1]) is reported as 167 nM, the IC50 [4] is reported as 170 nM and the IC50 [2] is reported as 6.3 nM.

Cc1cc(-c2ccccc2N(C)S(C)(=O)=O)n2nc(Nc3ccc(C4CCN(CC(N)=O)CC4)cc3)ncc12 showed an IC50 (Focal adhesion kinase 1 [3]) of 1230 nM and an IC50 (Focal adhesion kinase 1 [1]) of 11 nM.

For CN(c1ccccc1-c1cc(Cl)c2cnc(Nc3ccc(C4CCN(CC(N)=O)CC4)cc3)nn12)S(C)(=O)=O, the clearance [9] was 14 mL/min/kg, the half-life [10] was 60 min and the Cmax [11] was 185 ng/mL. For the same compound, the bioavailability [12] was 12%, the fraction unbound [13] was 0.006 and the IC50 (Insulin receptor) was 380 nM. For the same compound, the AUC(0-t) [14] was 1320 ng·h/mL, the IC50 (Focal adhesion kinase 1 [3]) was 420 nM and the inhibition in vivo at 55 mg/kg (Mus musculus [15]) was greater than 75%. For the same compound, the Vd [16] was 1.3 L/kg, the half-life [5] was 11 min and the half-life [6] was 17 min. It also gave a half-life [7] of 21 min, an AUC(0-inf) [17] of 832 ng·h/mL and a half-life [8] of 26 min. For the same compound, the Tmax [18] was 132 min, the IC50 (Focal adhesion kinase 1 [1]) was 5 nM and the inhibition in vivo at 55 mg/kg (Mus musculus [19]) was greater than 75%. It also gave an IC50 [20] of 2.9 nM, an IC50 [4] of 12 nM and an IC50 [2] of 2.5 nM.
